# From PubChem BioAssay (NCI)
#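 Assay format: 96-well plates, 48-hour exposure. TGI: concentration producing complete growth inhibition.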
# How the values were obtained:
# Test in all cases: NCI anticancer screen, dose series, 48 h
# SNB-19 CNS = test system: SNB-19 CNS
# OVCAR-5 ovarian = test system: OVCAR-5 ovarian
# COLO 205 colon = test system: COLO 205 colon
# CCRF-CEM leukemia = test system: CCRF-CEM leukemia
# DLD-1 colon = test system: DLD-1 colon
# TK-10 renal = test system: TK-10 renal
# SK-MEL-28 melanoma = test system: SK-MEL-28 melanoma
# NCI-H23 lung = test system: NCI-H23 lung
# HCT-116 colon = test system: HCT-116 colon
# RXF 393 renal = test system: RXF 393 renal
# SK-MEL-5 melanoma = test system: SK-MEL-5 melanoma
# NCI-H522 lung = test system: NCI-H522 lung
# SW-620 colon = test system: SW-620 colon
# DMS 114 small cell lung = test system: DMS 114 small cell lung
# PC-3 prostate = test system: PC-3 prostate
# HS 578T breast = test system: HS 578T breast
# T-47D breast = test system: T-47D breast
# MALME-3M melanoma = test system: MALME-3M melanoma
# MDA-MB-231 breast = test system: MDA-MB-231 breast
# MCF7 breast = test system: MCF7 breast
SMILES,TGI (SNB-19 CNS) [µM],TGI (OVCAR-5 ovarian) [µM],TGI (COLO 205 colon) [µM],TGI (CCRF-CEM leukemia) [µM],TGI (DLD-1 colon) [µM],TGI (TK-10 renal) [µM],TGI (SK-MEL-28 melanoma) [µM],TGI (NCI-H23 lung) [µM],TGI (HCT-116 colon) [µM],TGI (RXF 393 renal) [µM],TGI (SK-MEL-5 melanoma) [µM],TGI (NCI-H522 lung) [µM],TGI (SW-620 colon) [µM],TGI (DMS 114 small cell lung) [µM],TGI (PC-3 prostate) [µM],TGI (HS 578T breast) [µM],TGI (T-47D breast) [µM],TGI (MALME-3M melanoma) [µM],TGI (MDA-MB-231 breast) [µM],TGI (MCF7 breast) [µM]
O=C(Nc1ccc(Cl)cc1)C(=O)C(C(=O)c1ccccc1-c1ccccc1)C1OC(=O)c2ccccc21 (stereo not drawn),38.2,92.4,44.4,58,> 100,57.3,36.6,53.4,32.1,24.4,32,28.3,46.2,38.8,,,,,,
Nc1nc(N)c2cc(Sc3ccc4nc(N)nc(N)c4c3)ccc2n1,> 100,> 100,> 100,0.0104,,> 100,> 100,,> 100,> 100,,,> 100,,> 100,> 100,> 100,> 100,> 100,
COC(=O)C(Cc1cn(C(C)=O)c2ccccc12)P(=O)(OC)OC (stereo not drawn),> 100,> 100,> 100,> 100,,> 100,> 100,> 100,> 100,> 100,> 100,> 100,> 100,,> 100,,> 100,,> 100,> 100
C/C1=C/C(C)CC(C)OC(=O)C(C)NC(=O)C(Cc2ccc(O)c(I)c2)N(C)C(=O)CNC(=O)C(C)C1 (stereo not drawn),> 100,> 100,> 100,< 0.01,,,,> 100,> 100,< 0.01,13.2,,> 100,,,0.723,> 100,6.22,1.99,> 100
